Laboratory results as given in ChEMBL document CHEMBL4414648, “Novel Benzohydroxamate-Based Potent and Selective Histone Deacetylase 6 (HDAC6) Inhibitors Bearing a Pentaheterocyclic Scaffold: Design, Synthesis, and Biological Evaluation” (J Med Chem, 2019).
Active and inactive are the calls of the source. The calls are words filed in the database; no cut-off is given here.

What was measured:
[1] = target: T1, Protein deacetylase HDAC6 (Homo sapiens, UniProt Q9UBN7); experiment: biochemical
T1 sequence (Q9UBN7 whole entry): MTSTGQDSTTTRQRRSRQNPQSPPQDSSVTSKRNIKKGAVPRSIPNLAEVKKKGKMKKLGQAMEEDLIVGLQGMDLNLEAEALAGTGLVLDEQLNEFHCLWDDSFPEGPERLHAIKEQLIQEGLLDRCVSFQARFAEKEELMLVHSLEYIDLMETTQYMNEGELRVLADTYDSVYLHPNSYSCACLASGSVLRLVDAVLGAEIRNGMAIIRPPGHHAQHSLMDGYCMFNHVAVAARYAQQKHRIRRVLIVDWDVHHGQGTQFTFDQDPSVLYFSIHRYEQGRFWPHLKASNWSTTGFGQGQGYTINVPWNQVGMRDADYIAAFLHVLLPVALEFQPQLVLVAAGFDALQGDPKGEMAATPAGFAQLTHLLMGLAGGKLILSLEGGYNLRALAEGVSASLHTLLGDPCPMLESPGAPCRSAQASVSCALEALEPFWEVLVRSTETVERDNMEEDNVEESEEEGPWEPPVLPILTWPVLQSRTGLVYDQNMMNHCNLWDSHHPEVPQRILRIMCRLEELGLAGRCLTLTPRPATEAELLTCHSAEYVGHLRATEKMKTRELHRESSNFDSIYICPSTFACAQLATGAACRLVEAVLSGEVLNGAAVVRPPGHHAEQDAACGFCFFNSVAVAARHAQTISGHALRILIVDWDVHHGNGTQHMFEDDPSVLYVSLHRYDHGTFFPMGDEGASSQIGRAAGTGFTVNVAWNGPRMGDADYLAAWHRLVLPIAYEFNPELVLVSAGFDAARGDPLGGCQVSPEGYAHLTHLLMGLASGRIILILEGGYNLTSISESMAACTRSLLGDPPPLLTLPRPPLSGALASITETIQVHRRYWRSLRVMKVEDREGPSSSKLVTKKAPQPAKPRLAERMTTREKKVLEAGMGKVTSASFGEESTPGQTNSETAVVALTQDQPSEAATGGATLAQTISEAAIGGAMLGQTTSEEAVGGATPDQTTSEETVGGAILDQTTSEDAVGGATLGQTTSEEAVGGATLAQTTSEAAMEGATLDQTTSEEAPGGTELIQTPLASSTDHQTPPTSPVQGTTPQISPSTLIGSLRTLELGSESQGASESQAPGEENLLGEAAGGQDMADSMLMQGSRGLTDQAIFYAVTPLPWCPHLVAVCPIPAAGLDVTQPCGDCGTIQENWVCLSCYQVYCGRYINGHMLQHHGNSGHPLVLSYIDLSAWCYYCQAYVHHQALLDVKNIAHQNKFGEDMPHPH
Description: Inhibition of recombinant full length human N-terminal GST-tagged HDAC6 expressed in baculovirus infected sf9 insect cells pretreated with compound followed by Fluor de Lys deacetylase substrate addition by fluorescence method

[2] = target: Histone deacetylase 3/Nuclear receptor corepressor 2 (HDAC3/NCoR2) (Homo sapiens, UniProt O15379); experiment: Inhibition of C-terminal His-tagged human HDAC3 (1 to 428 residues)/N-terminal GST tagged human NCOR2 (395 to 489) expressed in baculovirus infected sf9 insect cells pretreated with compound followed by Fluor de Lys deacetylase substrate addition by fluorescence method
[3] = Oral bioavailability in dog; assay type: ADME, organism-based, Canis lupus familiaris; settings: in vivo
[4] = Stability in rat plasma assessed as parent compound remaining at 100 uM after 4 hrs by LC-MS/MS analysis; assay type: ADME, cell-free; settings: read-out: Stability
697 = experiment: Cytotoxicity against human 697 cells after 48 hrs by CellTiter 96 aqueous one solution assay; assay type: cell-based; settings: Homo sapiens, 697, 48 h
[5] = Toxicity in C57BL/6 mouse assessed as effect on spasms up to 50 mg/kg, ip administered for 5 days/week for two cycles and measured daily starting from day 1; assay type: organism-based; settings: in vivo, 120 h
[6] = Toxicity in C57BL/6 mouse assessed as effect on platelet level at 30 mg/kg, ip administered for 5 days/week for two cycles and measured 60 mins post last dose by cell counter method relative to control; assay type: organism-based; settings: in vivo, 1 h
[7] = Cmax in CD-1 mouse at 5.2 mg/kg, po measured within 6 hrs by LC-MS/MS analysis; assay type: ADME, organism-based; set-up: dose 5.2 mg/kg, route oral; settings: in vivo
[8] = Toxicity in C57BL/6 mouse assessed as effect on body weight at 10 mg/kg, ip administered for 5 days/week for two cycles and measured every other day relative to control; assay type: organism-based; settings: in vivo, 120 h
[9] = Toxicity in C57BL/6 mouse assessed as effect on grooming up to 50 mg/kg, ip administered for 5 days/week for two cycles; assay type: organism-based; settings: in vivo, 120 h
[10] = Toxicity in C57BL/6 mouse assessed as induction of diarrhea up to 50 mg/kg, ip administered for 5 days/week for two cycles and measured daily starting from day 1; assay type: organism-based; settings: in vivo, 120 h
[11] = Toxicity in C57BL/6 mouse assessed as effect on platelet level at 10 mg/kg, ip administered for 5 days/week for two cycles and measured 60 mins post last dose by cell counter method relative to control; assay type: organism-based; settings: in vivo, 1 h
[12] = Toxicity in C57BL/6 mouse assessed as effect on body temperature up to 50 mg/kg, ip administered for 5 days/week for two cycles and measured daily starting from day 1; assay type: organism-based; settings: in vivo, 120 h
[13] = Toxicity in C57BL/6 mouse assessed as effect on postural changes up to 50 mg/kg, ip administered for 5 days/week for two cycles and measured daily starting from day 1; assay type: organism-based; settings: in vivo, 120 h
[14] = Toxicity in C57BL/6 mouse assessed as effect on WBC level at 30 mg/kg, ip administered for 5 days/week for two cycles and measured 60 mins post last dose by beckman coulter counting method relative to control; assay type: organism-based; settings: in vivo, 1 h
[15] = Toxicity in C57BL/6 mouse assessed as effect on WBC level at 50 mg/kg, ip administered for 5 days/week for two cycles and measured 60 mins post last dose by beckman coulter counting method relative to control; assay type: organism-based; settings: in vivo, 1 h
[16] = Stability in rat liver S9 fraction assessed as parent compound remaining at 5 uM after 90 mins in presence of NADPH by LC-MS/MS analysis; assay type: ADME, subcellular; settings: read-out: Stability
[17] = Terminal half life in CD-1 mouse at […], iv measured within 6 hrs by LC-MS/MS analysis; assay type: ADME, organism-based; settings: in vivo, read-out: beta t1/2 (converted)
[18] = Toxicity in C57BL/6 mouse assessed as induction of leukopenia up to 50 mg/kg, ip administered for 5 days/week for two cycles; assay type: organism-based; settings: in vivo, 120 h
[19] = Tmax in CD-1 mouse at 5.2 mg/kg, po measured within 6 hrs by LC-MS/MS analysis; assay type: ADME, organism-based; settings: in vivo
[20] = Toxicity in C57BL/6 mouse assessed as effect on body weight at 30 mg/kg, ip administered for 5 days/week for two cycles and measured every other day relative to control; assay type: organism-based; settings: in vivo, 120 h
[21] = Apparent volume of distribution at steady state in CD-1 mouse at […], iv measured within 6 hrs by LC-MS/MS analysis; assay type: ADME, organism-based; settings: in vivo, read-out: Vdss(app)
[22] = Oral bioavailability in rat; assay type: ADME, organism-based; settings: in vivo
[23] = Stability in human liver S9 fraction assessed as parent compound remaining at 5 uM after 90 mins in presence of NADPH by LC-MS/MS analysis; assay type: ADME, subcellular; settings: read-out: Stability
[24] = Toxicity in C57BL/6 mouse assessed as effect on body weight at 50 mg/kg, ip administered for 5 days/week for two cycles and measured every other day relative to control; assay type: organism-based; settings: in vivo, 120 h
[25] = Toxicity in C57BL/6 mouse assessed as induction of piloerection up to 50 mg/kg, ip administered for 5 days/week for two cycles and measured daily starting from day 1; assay type: organism-based; settings: in vivo, 120 h
[26] = Toxicity in C57BL/6 mouse assessed as effect on platelet level at 50 mg/kg, ip administered for 5 days/week for two cycles and measured 60 mins post last dose by cell counter method relative to control; assay type: organism-based; settings: in vivo, 1 h
[27] = Stability in human plasma assessed as parent compound remaining at 100 uM after 4 hrs by LC-MS/MS analysis; assay type: ADME, cell-free; settings: read-out: Stability
PBMC = experiment: Cytotoxicity against human PBMC cells after 72 hrs by CellTiter 96 aqueous one solution assay; assay type: cell-based
[28] = Oral bioavailability in CD-1 mouse at 5.2 mg/kg measured within 6 hrs by LC-MS/MS analysis; assay type: ADME, organism-based; settings: in vivo
[29] = Toxicity in ip dosed C57BL/6 mouse administered for 5 days/week for two cycles; assay type: organism-based; settings: in vivo
[30] = Drug level in C57BL/6 mouse plasma at 30 mg/kg, ip measured after 24 hrs; assay type: ADME, organism-based; settings: in vivo, BLD = below limit of detection
[31] = Toxicity in C57BL/6 mouse assessed as induction of kyphosis up to 50 mg/kg, ip administered for 5 days/week for two cycles and measured daily starting from day 1; assay type: organism-based; settings: in vivo, 120 h
[32] = Toxicity in C57BL/6 mouse assessed as effect on stool up to 50 mg/kg, ip administered for 5 days/week for two cycles and measured daily starting from day 1; assay type: organism-based; settings: in vivo, 120 h
[33] = Total clearance in CD-1 mouse at […], iv measured within 6 hrs by LC-MS/MS analysis; assay type: ADME, organism-based; settings: in vivo
[34] = Drug level in CD-1 mouse at […], iv measured after 5 mins by LC-MS/MS analysis; assay type: ADME, organism-based; settings: in vivo, read-out: Drug uptake
Mus musculus = experiment: In vivo inhibition of HDAC6 in C57BL/6 mouse assessed as increase in acetylated tubulin level in spleen cytosolic protein extract at 30 mg/kg, ip measured after 24 hrs by ELISA; assay type: functional, organism-based
[35] = Total AUC in CD-1 mouse at 5.2 mg/kg, po measured within 6 hrs by LC-MS/MS analysis; assay type: ADME, organism-based; set-up: dose 5.2 mg/kg, route oral, time AUCmax; settings: in vivo
[36] = Toxicity in C57BL/6 mouse assessed as effect on WBC level at 10 mg/kg, ip administered for 5 days/week for two cycles and measured 60 mins post last dose by beckman coulter counting method relative to control; assay type: organism-based; settings: in vivo, 1 h
[37] = Toxicity in C57BL/6 mouse assessed as inactivity/hyperactivity up to 50 mg/kg, ip administered for 5 days/week for two cycles and measured daily starting from day 1; assay type: organism-based; settings: in vivo, 120 h
[38] = Toxicity in C57BL/6 mouse assessed as effect on social behavior up to 50 mg/kg, ip administered for 5 days/week for two cycles; assay type: organism-based; settings: in vivo, 120 h

Histone deacetylase 3/Nuclear receptor corepressor 2 (HDAC3/NCoR2), sequence (O15379 whole entry, the tested form may be a part): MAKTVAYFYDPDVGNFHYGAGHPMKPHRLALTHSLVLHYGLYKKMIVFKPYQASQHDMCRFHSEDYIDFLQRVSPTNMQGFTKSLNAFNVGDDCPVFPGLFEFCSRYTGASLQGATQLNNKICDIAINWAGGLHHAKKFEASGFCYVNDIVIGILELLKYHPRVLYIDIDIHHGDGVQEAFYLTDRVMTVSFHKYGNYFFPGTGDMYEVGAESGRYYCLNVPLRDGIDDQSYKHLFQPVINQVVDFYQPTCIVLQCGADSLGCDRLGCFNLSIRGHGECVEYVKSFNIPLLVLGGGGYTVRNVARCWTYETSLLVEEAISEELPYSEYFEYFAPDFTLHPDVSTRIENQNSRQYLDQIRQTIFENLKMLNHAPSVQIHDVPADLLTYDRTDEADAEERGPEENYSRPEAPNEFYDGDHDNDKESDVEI
Histone deacetylase 3/Nuclear receptor corepressor 2 (HDAC3/NCoR2), sequence (Q9Y618 whole entry, further chain, the tested form may be a part): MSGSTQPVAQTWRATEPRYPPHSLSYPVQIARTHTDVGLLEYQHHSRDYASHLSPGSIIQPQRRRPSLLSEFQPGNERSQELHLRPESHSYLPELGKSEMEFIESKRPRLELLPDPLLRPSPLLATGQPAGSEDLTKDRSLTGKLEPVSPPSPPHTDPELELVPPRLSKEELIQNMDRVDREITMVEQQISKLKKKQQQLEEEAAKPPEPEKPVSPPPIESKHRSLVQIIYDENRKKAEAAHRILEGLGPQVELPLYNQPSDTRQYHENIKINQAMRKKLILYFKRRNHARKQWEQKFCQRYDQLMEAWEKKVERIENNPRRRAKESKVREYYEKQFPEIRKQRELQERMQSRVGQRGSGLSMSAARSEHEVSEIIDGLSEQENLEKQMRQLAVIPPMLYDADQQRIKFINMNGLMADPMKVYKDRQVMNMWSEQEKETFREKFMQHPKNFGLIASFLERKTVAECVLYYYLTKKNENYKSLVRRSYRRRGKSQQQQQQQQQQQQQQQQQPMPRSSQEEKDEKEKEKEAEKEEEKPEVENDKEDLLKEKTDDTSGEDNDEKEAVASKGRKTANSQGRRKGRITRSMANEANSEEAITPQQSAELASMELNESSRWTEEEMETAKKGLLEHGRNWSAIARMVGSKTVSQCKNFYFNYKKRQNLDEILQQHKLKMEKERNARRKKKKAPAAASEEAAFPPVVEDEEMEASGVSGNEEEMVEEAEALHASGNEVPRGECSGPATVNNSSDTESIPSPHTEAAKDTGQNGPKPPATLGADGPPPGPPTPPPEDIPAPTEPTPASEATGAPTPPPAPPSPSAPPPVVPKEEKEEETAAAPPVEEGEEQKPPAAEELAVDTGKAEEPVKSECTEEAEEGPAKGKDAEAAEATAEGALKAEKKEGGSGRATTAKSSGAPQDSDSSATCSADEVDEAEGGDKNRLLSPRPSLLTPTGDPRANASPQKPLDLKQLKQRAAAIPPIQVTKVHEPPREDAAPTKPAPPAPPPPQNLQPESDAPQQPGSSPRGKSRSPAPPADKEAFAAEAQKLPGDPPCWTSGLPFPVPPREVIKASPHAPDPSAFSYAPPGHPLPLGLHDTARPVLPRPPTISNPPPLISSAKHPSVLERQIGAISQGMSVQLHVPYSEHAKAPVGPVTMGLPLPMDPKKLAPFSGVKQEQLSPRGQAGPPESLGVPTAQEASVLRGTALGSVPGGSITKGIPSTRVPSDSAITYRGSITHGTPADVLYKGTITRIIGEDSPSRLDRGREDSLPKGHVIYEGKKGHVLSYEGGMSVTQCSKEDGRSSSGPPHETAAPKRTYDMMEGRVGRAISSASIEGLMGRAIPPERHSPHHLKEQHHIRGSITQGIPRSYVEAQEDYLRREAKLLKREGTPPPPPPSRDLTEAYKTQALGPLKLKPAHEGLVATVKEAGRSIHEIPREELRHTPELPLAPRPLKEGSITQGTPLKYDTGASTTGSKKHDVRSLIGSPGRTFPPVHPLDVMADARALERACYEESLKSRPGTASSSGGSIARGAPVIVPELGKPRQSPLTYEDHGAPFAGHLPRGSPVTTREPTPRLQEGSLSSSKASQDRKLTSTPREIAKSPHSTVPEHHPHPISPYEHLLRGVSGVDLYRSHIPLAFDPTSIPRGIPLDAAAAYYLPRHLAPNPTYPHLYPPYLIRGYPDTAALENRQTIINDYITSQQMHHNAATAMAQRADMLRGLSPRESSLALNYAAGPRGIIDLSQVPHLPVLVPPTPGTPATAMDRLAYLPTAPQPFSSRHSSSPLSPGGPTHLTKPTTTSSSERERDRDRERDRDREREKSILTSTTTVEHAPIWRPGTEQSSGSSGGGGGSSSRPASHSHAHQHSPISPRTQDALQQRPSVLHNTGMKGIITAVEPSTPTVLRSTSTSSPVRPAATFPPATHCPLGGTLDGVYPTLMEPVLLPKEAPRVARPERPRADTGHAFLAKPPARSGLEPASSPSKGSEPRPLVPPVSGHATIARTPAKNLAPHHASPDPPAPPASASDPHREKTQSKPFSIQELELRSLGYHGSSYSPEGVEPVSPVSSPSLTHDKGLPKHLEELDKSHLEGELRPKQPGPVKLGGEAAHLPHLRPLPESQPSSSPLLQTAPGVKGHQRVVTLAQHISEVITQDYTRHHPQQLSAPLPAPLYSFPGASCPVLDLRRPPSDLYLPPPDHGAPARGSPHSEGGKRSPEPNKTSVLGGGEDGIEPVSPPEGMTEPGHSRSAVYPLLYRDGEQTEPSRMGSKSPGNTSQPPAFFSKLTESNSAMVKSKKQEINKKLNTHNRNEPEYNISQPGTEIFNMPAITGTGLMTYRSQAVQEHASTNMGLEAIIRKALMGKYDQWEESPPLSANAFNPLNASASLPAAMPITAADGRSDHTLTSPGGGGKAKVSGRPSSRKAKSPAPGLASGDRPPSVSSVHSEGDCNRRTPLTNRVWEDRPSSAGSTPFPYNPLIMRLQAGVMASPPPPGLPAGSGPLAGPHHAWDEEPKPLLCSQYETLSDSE

SMILES: O=C(NO)c1ccc(Cc2nnc[nH]2)cc1
- IC50 [1]: 198 nM
- IC50 [2]: 2900 nM

SMILES: Cc1nnc(-c2ccc(C(=O)NO)cc2)[nH]1
- IC50 [1]: 353 nM
- IC50 [2]: 3560 nM

SMILES: Nc1ccc(C(=O)NO)cc1
- IC50 [1]: 1390 nM
- IC50 [2]: 18400 nM

SMILES: O=C(NO)c1ccc(Cn2nnnc2-c2cccs2)cc1
- bioavailability [3]: 16%
- remaining at 4 h, 100 µM [4]: 62%
- IC50 697: > 1000 nM
- Activity [5]: Non-Toxic
- Activity [6]: -7%
- Cmax [7]: 238 ng/mL
- Activity [8]: 2.2%
- Activity [9]: Non-Toxic
- Activity [10]: Non-Toxic
- Activity [11]: -5%
- Activity [12]: Non-Toxic
- Activity [13]: Non-Toxic
- Activity [14]: -11%
- Activity [15]: -15%
- remaining at […], 5 µM [16]: 82%
- half-life at 6 h [17]: 60 min
- Activity [18]: Non-Toxic
- Tmax [19]: 4.8 min
- Activity [20]: 3.5%
- Vd at 6 h [21]: 4.8 L/kg
- bioavailability [22]: 25%
- remaining at […], 5 µM [23]: 100%
- Activity [24]: 1.4%
- Activity [25]: Non-Toxic
- Activity [26]: -1%
- remaining at 4 h, 100 µM [27]: 91%
- IC50 (PBMC): > 1000 nM
- bioavailability [28]: 19%
- MTD at 120 h [29]: > 50 mg/kg
- Drug uptake [30]: Bld
- Activity [31]: Non-Toxic
- Activity [32]: Non-Toxic
- clearance at 6 h [33]: 172 mL/min/kg
- concentration at 5 min [34]: 685 ng/mL
- inhibition (Mus musculus): Active
- AUC at 6 h [35]: 94 ng·h/mL
- Activity [36]: -4%
- Activity [37]: Non-Toxic
- Activity [38]: Non-Toxic

SMILES: CC(=O)Nc1ccc(C(=O)NO)cc1
- IC50 [1]: 270 nM
- IC50 [2]: 1670 nM
